Measured values reported in ChEMBL document CHEMBL1201862, “PubChem BioAssay data set” (2004).
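Five concentrations, 48 hours, 96-well plates. Abbreviation: GI50, concentration required for 50% inhibition of growth.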 The source made the active and inactive calls. Cut-off read from the data, not from the text of the source: active = GI50 up to about 1.1 µM and inactive = higher.

Key:
Test in all cases: NCI-60 cell line screen, 48 h
[1] = system: SK-OV-3
[2] = system: COLO 205
[3] = system: NCI-H522
[4] = system: TK-10
[5] = system: A498
[6] = system: SF-268
[7] = system: LXFL 529
[8] = system: HCC 2998
[9] = system: OVCAR-3
[10] = system: SK-MEL-28
[11] = system: HOP-62
[12] = system: XF498
[13] = system: 786-0
[14] = system: RPMI-8226
[15] = system: HCT-15
[16] = system: NCI-H460
[17] = system: DLD-1
[18] = system: CAKI-1
[19] = system: CCRF-CEM
[20] = system: M14
[21] = system: SF-539
[22] = system: SK-MEL-2
[23] = system: OVCAR-5
[24] = system: KM12
[25] = system: UACC-257
[26] = system: SW-620
[27] = system: HOP-92
[28] = system: SF-295
[29] = system: HT-29
[30] = system: NCI-H226
[31] = system: UO-31
[32] = system: SNB-78
[33] = system: HOP-18
[34] = system: ACHN
[35] = system: KM-20L2
[36] = system: Malme-3M
[37] = system: U-251
[38] = system: EKVX
[39] = system: M19-MEL
[40] = system: MOLT-4
[41] = system: LOX IMVI
[42] = system: HL-60
[43] = system: K562
[44] = system: SK-MEL-5
[45] = system: NCI-H23
[46] = system: SNB-19
[47] = system: IGROV-1
[48] = system: OVCAR-4
[49] = system: UACC-62
[50] = system: A549
[51] = system: DMS-114
[52] = system: DMS-273
[53] = system: NCI/ADR-RES
[54] = system: HCT-116
[55] = system: RXF 393
[56] = system: MDA-MB-231
[57] = system: SNB-75
[58] = system: BT-549
[59] = system: SR
[60] = system: SN12C
[61] = system: Hs-578T
[62] = system: T47D
[63] = system: MDA-MB-435
[64] = system: PC-3
[65] = system: OVCAR-8
[66] = system: MCF7
[67] = system: DU-145
[68] = system: MDA-N

In the case of `CC(=O)C1=C(O)C2C3c4c[nH]c5cccc(c45)CC3C(C)(C)N2C1=O` (stereo not drawn), the GI50 [1] is reported as > 100 µM (inactive), the GI50 [2] is reported as > 100 µM (inactive) and the GI50 [3] is reported as 11.9 µM (inactive). The GI50 [4] was 46.5 µM (inactive), the GI50 [5] was 20.1 µM (inactive) and the GI50 [6] was 27.4 µM (inactive). For the same molecule, the GI50 [7] was 78.3 µM (inactive), the GI50 [8] was 23.1 µM (inactive) and the GI50 [9] was 23.1 µM (inactive). The GI50 [10] was 21.6 µM (inactive), the GI50 [11] was 6.46 µM (inactive) and the GI50 [12] was 51.4 µM (inactive). For the same molecule, the GI50 [13] was 19.3 µM (inactive), the GI50 [14] was 4.85 µM (inactive) and the GI50 [15] was 34.6 µM. The GI50 [16] was 10.8 µM (inactive), the GI50 [17] was 40.8 µM (inactive) and the GI50 [18] was > 100 µM (inactive). The GI50 [19] was 27.2 µM (inactive), the GI50 [20] was > 100 µM (inactive) and the GI50 [21] was 15.6 µM (inactive). For the same molecule, the GI50 [22] was 13.1 µM (inactive), the GI50 [23] was 16.6 µM (inactive) and the GI50 [24] was 40.5 µM (inactive). The GI50 [25] was 62.2 µM (inactive), the GI50 [26] was 30.3 µM (inactive) and the GI50 [27] was > 100 µM (inactive). The GI50 [28] was 24.3 µM (inactive), the GI50 [29] was 34.4 µM (inactive) and the GI50 [30] was 17.3 µM (inactive). For the same molecule, the GI50 [31] was 25.6 µM (inactive), the GI50 [32] was > 100 µM (inactive) and the GI50 [33] was 21.2 µM (inactive). The GI50 [34] was 28.2 µM (inactive), the GI50 [35] was 31.6 µM (inactive) and the GI50 [36] was 33.9 µM (inactive). The GI50 [37] was 17.1 µM (inactive), the GI50 [38] was 20.6 µM (inactive) and the GI50 [39] was > 100 µM (inactive). For the same molecule, the GI50 [40] was 15.6 µM (inactive), the GI50 [41] was 16.2 µM (inactive) and the GI50 [42] was 3.05 µM (inactive). The GI50 [43] was 45.7 µM (inactive), the GI50 [44] was 11.7 µM (inactive) and the GI50 [45] was 11.6 µM (inactive). The GI50 [46] was 15.4 µM (inactive), the GI50 [47] was > 100 µM (inactive) and the GI50 [48] was > 100 µM (inactive). For the same molecule, the GI50 [49] was 44.1 µM (inactive), the GI50 [50] was 28.7 µM (inactive) and the GI50 [51] was 20.4 µM (inactive). The GI50 [52] was 27.5 µM (inactive).

`ClCCCN1CCN(CCCl)CC1` was tested, and the GI50 [1] was 56.2 µM (inactive), the GI50 [2] was 161 µM (inactive) and the GI50 [3] was 121 µM (inactive). The GI50 [4] was 357 µM (inactive), the GI50 [5] was 261 µM (inactive) and the GI50 [6] was 57.3 µM (inactive). For the same molecule, the GI50 [8] was 346 µM (inactive), the GI50 [53] was 127 µM (inactive) and the GI50 [9] was 167 µM (inactive). For the same molecule, the GI50 [10] was 491 µM (inactive), the GI50 [11] was 24.1 µM (inactive) and the GI50 [12] was 46.3 µM (inactive). The GI50 [54] was 195 µM (inactive), the GI50 [13] was 49.7 µM (inactive) and the GI50 [55] was 166 µM (inactive). The GI50 [56] was 324 µM (inactive), the GI50 [14] was 205 µM (inactive) and the GI50 [15] was 189 µM. The GI50 [16] was 6.24 µM (inactive), the GI50 [17] was 167 µM (inactive) and the GI50 [57] was 119 µM (inactive). The GI50 [18] was 15.2 µM (inactive), the GI50 [19] was 7.62 µM (inactive) and the GI50 [20] was 137 µM (inactive). For the same molecule, the GI50 [21] was 35.6 µM (inactive), the GI50 [22] was 238 µM (inactive) and the GI50 [23] was 250 µM (inactive). The GI50 [24] was 552 µM (inactive), the GI50 [25] was 284 µM (inactive) and the GI50 [26] was 252 µM (inactive). The GI50 [27] was 105 µM (inactive), the GI50 [28] was 34.3 µM (inactive) and the GI50 [58] was 124 µM (inactive). The GI50 [29] was 242 µM (inactive), the GI50 [30] was 215 µM (inactive) and the GI50 [31] was 109 µM (inactive). The GI50 [32] was 135 µM (inactive), the GI50 [59] was 7.98 µM (inactive) and the GI50 [60] was 34.4 µM (inactive). The GI50 [61] was 305 µM (inactive), the GI50 [62] was 95.5 µM (inactive) and the GI50 [33] was > 553 µM (inactive). For the same molecule, the GI50 [34] was 11.1 µM (inactive), the GI50 [63] was 282 µM (inactive) and the GI50 [35] was 269 µM (inactive). The GI50 [36] was 142 µM (inactive), the GI50 [37] was 118 µM (inactive) and the GI50 [38] was 352 µM (inactive). For the same molecule, the GI50 [39] was 226 µM (inactive), the GI50 [40] was 5.24 µM (inactive) and the GI50 [41] was 59.8 µM (inactive). The GI50 [64] was 383 µM (inactive), the GI50 [42] was 4.51 µM (inactive) and the GI50 [43] was 212 µM (inactive). For the same molecule, the GI50 [44] was 239 µM (inactive), the GI50 [45] was 69.8 µM (inactive) and the GI50 [46] was 182 µM (inactive). The GI50 [65] was 120 µM (inactive), the GI50 [47] was 120 µM (inactive) and the GI50 [48] was 186 µM (inactive). For the same molecule, the GI50 [49] was 10.5 µM (inactive), the GI50 [50] was 110 µM (inactive) and the GI50 [66] was 65.5 µM (inactive). For the same molecule, the GI50 [67] was 57.3 µM (inactive), the GI50 [68] was 191 µM (inactive) and the GI50 [51] was 28.9 µM (inactive). For the same molecule, the GI50 [52] was 28.9 µM (inactive).

With `O=c1[nH]c2ccccc2n1C1CCN(CCCC(c2ccc(F)cc2)c2ccc(F)cc2)CC1` [PIMOZIDE] the GI50 [1] was 12.8 µM (inactive), the GI50 [2] was 1.69 µM (inactive) and the GI50 [3] was 2.81 µM (inactive). For the same molecule, the GI50 [6] was 12.1 µM (inactive), the GI50 [7] was 3.73 µM (inactive) and the GI50 [8] was 1.9 µM (inactive). For the same molecule, the GI50 [10] was 2.15 µM (inactive), the GI50 [11] was 10.7 µM (inactive) and the GI50 [12] was 4.17 µM (inactive). The GI50 [15] was 3.1 µM, the GI50 [17] was 5.74 µM (inactive) and the GI50 [57] was 10.8 µM (inactive). For the same molecule, the GI50 [19] was 5.51 µM (inactive), the GI50 [20] was 2.7 µM (inactive) and the GI50 [23] was 8 µM (inactive). For the same molecule, the GI50 [27] was 3.9 µM (inactive), the GI50 [28] was 4.02 µM (inactive) and the GI50 [29] was 2.55 µM (inactive). For the same molecule, the GI50 [32] was 15.1 µM (inactive), the GI50 [59] was 2.5 µM (inactive) and the GI50 [60] was 12.2 µM (inactive). The GI50 [33] was 15.6 µM (inactive), the GI50 [35] was 2.01 µM (inactive) and the GI50 [36] was 2.05 µM (inactive). For the same molecule, the GI50 [39] was 3.81 µM (inactive), the GI50 [40] was 3.67 µM (inactive) and the GI50 [42] was 2.37 µM (inactive). The GI50 [43] was 2.88 µM (inactive), the GI50 [46] was 14.5 µM (inactive) and the GI50 [47] was 13.9 µM (inactive). The GI50 [48] was 8.59 µM (inactive), the GI50 [68] was 9.77 µM (inactive) and the GI50 [51] was 2.22 µM (inactive). For the same molecule, the GI50 [52] was 3.45 µM (inactive).
